Experimental data published in article PMC6934184, “Selective DNA-PKcs inhibition extends the therapeutic index of localized radiotherapy and chemotherapy” (The Journal of Clinical Investigation, 2019).

Target: T1, STK4 (MST1) (Homo sapiens, UniProt Q13043)
T1 construct: purchased Thermo Fisher Scientific (Life Technologies) SelectScreen
Experiment: SelectScreen Z'LYTE
Format: biochemical
Outline: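 NU5455 was profiled across the SelectScreen Broad panel of kinase activity and binding assays. Z'LYTE reactions such as CSF1R ran at apparent Km ATP, while the Adapta CAMK1 assay used ATP listed as 10. Values are given as percent.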

T1 sequence (Q13043 whole entry): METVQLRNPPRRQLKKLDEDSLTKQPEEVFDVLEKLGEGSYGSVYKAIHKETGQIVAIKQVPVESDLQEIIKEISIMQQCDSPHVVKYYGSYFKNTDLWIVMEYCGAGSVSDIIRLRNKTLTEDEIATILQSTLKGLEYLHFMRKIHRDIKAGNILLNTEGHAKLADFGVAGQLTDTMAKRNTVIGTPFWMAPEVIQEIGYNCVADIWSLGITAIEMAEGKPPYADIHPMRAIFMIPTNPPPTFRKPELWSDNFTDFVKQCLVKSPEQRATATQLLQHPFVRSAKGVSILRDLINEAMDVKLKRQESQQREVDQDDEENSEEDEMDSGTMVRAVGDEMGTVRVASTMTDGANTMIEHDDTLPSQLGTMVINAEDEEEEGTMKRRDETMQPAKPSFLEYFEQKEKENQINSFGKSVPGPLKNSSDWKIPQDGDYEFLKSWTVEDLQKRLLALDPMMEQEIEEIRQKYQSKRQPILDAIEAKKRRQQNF

Compound: CN(C(=O)CN1CCOCC1)c1ccc2sc3c(-c4cccc5c(=O)cc(N6CC7CCC(C6)O7)oc45)cccc3c2c1 [NU5455]
- inhibition at 1 µM: -4.4%
